# Where a name gives a salt, the structure may show the parent alone.
# Tested on: Hedgehog Signaling Pathway
# Test: Gli-Luc reporter gene cell assay in C3H10T1/2/Gli-Luc cells stimulated with Shh
# Type: cell-based, mouse
# Details: 30 nM Shh, 24 hours, luciferase activity (RLU), Dihydrochloride, read-out: IC50 values of compounds that inhibit Hh pathway
# Excerpt: The Application of Reporter Gene Cell Assay for the Determination of the Inhibitory Activity of N-(3-(1H-benzo[d]imidazol-2-yl)-4-chlorophenyl)-2-methyl-4-((2S,6R)-2,6-dimethylmorpholino) benzamide and Analogs on Hedgehog Signaling Pathway
# The binding of Sonic hedgehog (Shh) to its receptor Patched 1 initiates numerous intracellular signal transmission, and leads to the nuclear translocation of Gli and the elevated transcription of Gli target genes. When C3H10T1/2 cells are stably transfected with the Gli-Luc plasmids containing the luciferase gene under the control of Gli response element and stimulated with Shh, the expression of luciferase is elevated. Luciferase activity is indicative of the hedgehog signaling pathway activity. Therefore, the inhibitory activity of compounds on hedgehog signaling pathway can be measured using the luciferase activity when the transfected cells are stimulated with Shh.
# The day before experiment, C3H10T1/2/Gli-Luc cells in log phase of growth were seeded into 96 well plate at a density of 20000 cells per well. The cells were maintained in DMEM (Hyclone) supplemented with 10% FBS (Hyclone) and incubated at 37° C. with 5% CO2 overnight. The compounds to be examined were diluted into 7 different concentrations by series of dilutions (⅓ and 1/10), and the eighth point of concentration is the DMSO control. Those solutions were diluted 100-fold in the fresh growth medium. The cells were taken out of the incubator and the medium of cultured cells were removed. Then, each well was added in an orderly manner with 80 μL of fresh growth medium, 20 μL of medium pre-dilution of positive compound and compounds to be tested, as well as 100 μL of growth medium containing 30 nM of Shh. The cells are returned to the incubator, and incubated for 24 hours.
# Measurement of luciferase activity: After taking the 96 well plate out of the incubator, the supernatants were discarded and the cells were washed twice with PBS. Thereafter, each well was dispensed with 20 μL of lysis buffer (Promega E1531), and the plate was shaken for 30 min at room temperature. Following transferring 5 μL of cell lysate into 384 well plate (Greiner 781074), adding 25 μL of luciferase reaction buffer (Promega E1501) into each well and mixing the plate, the relative light unit (RLU) was immediately captured by VarioSkan Flash.
# The data were analyzed with Prism 5 software (GraphPad). The relative light unit (RLU) was plotted against the log concentration of testing compound, and the obtained plot was fitted with non-linear curve fitting equation to calculate IC50 values. The curve fitting equation is Y (RLU)=Bottom+(Top−Bottom)/(1+10^((X−Log IC50))). X is the logarithm of concentration. Y is the measure of relative light unit (RLU).
# The calculated IC50 value is a measurement of the inhibitory activity of compound to Hh pathway.
row,IC50,SMILES
1,1.2 nM,"C[C@@H]1CN(c2ccc(C(=O)Nc3ccc(Cl)c(-c4nc5ccc(F)cc5[nH]4)c3)c(Cl)c2)C[C@H](C)N1C [Example 131, N-(3-(6-fluoro-1H-benzo[d]imidazol-2-yl)-4-chlorophenyl)-2-chloro-4-((3S,5R)-3,4,5-trimethylpiperazin-1-yl)benzamide Dihydrochloride]"

# Same assay, conditions: 30 nM Shh, 24 hours, luciferase activity (RLU), read-out: IC50 values of compounds that inhibit Hh pathway
row,IC50,SMILES
1,0.24 nM,"C[C@@H]1CN(c2ccc(C(=O)Nc3ccc(Cl)c(-c4ncc(-c5ccsc5)[nH]4)c3)c(C(F)(F)F)c2)C[C@H](C)N1C [Example 164, N-(3-(5-(thiophen-3-yl)-1H-imidazol-2-yl)-4-chlorophenyl)-2-(trifluoromethyl)-4-((3S,5R)-3,4,5-trimethylpiperazin-1-yl) benzamide Dihydrochloride]"
2,0.28 nM,"C[C@@H]1CN(c2ccc(C(=O)Nc3ccc(Cl)c(-c4nc5cscc5[nH]4)c3)c(C(F)(F)F)c2)C[C@H](C)N1C [Example 200, N-(3-(1H-thieno[3,4-d]imidazol-2-yl)-4-chlorophenyl)-2-(trifluoromethyl)-4-((3S,5R)-3,4,5-trimethylpiperazin-1-yl) Benzamide]"

# Same assay, conditions: Mus musculus, C3H 10T1/2, 24 h, 30 nM Shh, luciferase activity (RLU), read-out: IC50 values of compounds that inhibit Hh pathway
row,IC50,SMILES
1,0.5 nM,"CCN1[C@H](C)CN(c2ccc(C(=O)Nc3ccc(Cl)c(-c4ncc(-c5ccco5)[nH]4)c3)c(Cl)c2)C[C@@H]1C [Example 150, N-(3-(5-(furan-2-yl)-1H-imidazol-2-yl)-4-chlorophenyl)-2-chloro-4-((3S,5R)-4-ethyl-3,5-dimethylpiperazin-1-yl)benzamide]"
2,2 nM,"Cc1ccc(-c2cnc(-c3cc(NC(=O)c4ccc(N5C[C@@H](C)N(C)[C@@H](C)C5)cc4Cl)ccc3Cl)[nH]2)o1 [Example 151, N-(3-(5-(5-methylfuran-2-yl)-1H-imidazol-2-yl)-4-chlorophenyl)-2-chloro-4-((3S,5R)-3,4,5-trimethylpiperazin-1-yl)benzamide]"
3,1.2 nM,"Cc1ccc(-c2cnc(-c3cc(NC(=O)c4ccc(N5C[C@@H](C)N(C)[C@@H](C)C5)cc4C)ccc3Cl)[nH]2)o1 [Example 152, N-(3-(5-(5-methylfuran-2-yl)-1H-imidazol-2-yl)-4-chlorophenyl)-2-methyl-4-((3S,5R)-3,4,5-trimethylpiperazin-1-yl)benzamide]"
4,0.38 nM,"Cc1cc(N2C[C@@H](C)N(C)[C@@H](C)C2)ccc1C(=O)Nc1ccc(Cl)c(-c2ncc(-c3cccn3C)[nH]2)c1 [Example 161, N-(3-(5-(1-methyl-1H-pyrrol-2-yl)-1H-imidazol-2-yl)-4-chlorophenyl)-2-methyl-4-((3S,5R)-3,4,5-trimethylpiperazin-1-yl)benzamide]"
5,0.3 nM,"C[C@@H]1CN(c2ccc(C(=O)Nc3ccc(Cl)c(-c4ncc(-c5cccn5C)[nH]4)c3)c(Cl)c2)C[C@H](C)N1C [Example 162, N-(3-(5-(1-methyl-1H-pyrrol-2-yl)-1H-imidazol-2-yl)-4-chlorophenyl)-2-chloro-4-((3S,5R)-3,4,5-trimethylpiperazin-1-yl)benzamide]"
6,0.19 nM,"CCN1[C@H](C)CN(c2ccc(C(=O)Nc3ccc(Cl)c(-c4ncc(-c5ccsc5)[nH]4)c3)c(Cl)c2)C[C@@H]1C [Example 165, N-(3-(5-(thiophen-3-yl)-1H-imidazol-2-yl)-4-chlorophenyl)-2-chloro-4-((3S,5R)-4-ethyl-3,5-dimethylpiperazin-1-yl)benzamide Dihydrochloride]"
7,28 nM,"CCc1cnc(-c2cc(NC(=O)c3ccc(N4C[C@@H](C)N(C)[C@@H](C)C4)cc3C(F)(F)F)ccc2Cl)[nH]1 [Example 167, N-(3-(5-ethyl-1H-imidazol-2-yl)-4-chlorophenyl)-2-(trifluoromethyl)-4-((3S,5R)-3,4,5-trimethylpiperazin-1-yl)benzamide]"
8,0.38 nM,"CCc1cnc(-c2cc(NC(=O)c3ccc(N4C[C@@H](C)N(C)[C@@H](C)C4)c(F)c3C)ccc2Cl)[nH]1 [Example 168, N-(3-(5-ethyl-1H-imidazol-2-yl)-4-chlorophenyl)-2-methyl-3-fluoro-4-((3S,5R)-3,4,5-trimethylpiperazin-1-yl)benzamide]"
9,0.67 nM,"CCc1cnc(-c2cc(NC(=O)c3ccc(N4C[C@@H](C)N(CC)[C@@H](C)C4)cc3Cl)ccc2Cl)[nH]1 [Example 169, N-(3-(5-ethyl-1H-imidazol-2-yl)-4-chlorophenyl)-2-chloro-4-((3S,5R)-4-ethyl-3,5-dimethylpiperazin-1-yl)benzamide]"
10,0.46 nM,"CC(C)c1cnc(-c2cc(NC(=O)c3ccc(N4C[C@@H](C)N(C)[C@@H](C)C4)cc3C(F)(F)F)ccc2Cl)[nH]1 [Example 171, N-(3-(5-isopropyl-1H-imidazol-2-yl)-4-chlorophenyl)-2-(trifluoro-methyl)-4-((3S,5R)-3,4,5-trimethylpiperazin-1-yl)benzamide]"
11,3.4 nM,"Cc1cnc(-c2cc(NC(=O)c3ccc(N4C[C@@H](C)N(C)[C@@H](C)C4)cc3C)ccc2Cl)[nH]1 [Example 186, N-(3-(5-methyl-1H-imidazol-2-yl)-4-chlorophenyl)-2-methyl-4-((3S,5R)-3,4,5-trimethylpiperazin-1-yl)benzamide Dihydrochloride]"
12,0.45 nM,"CCc1cnc(-c2cc(NC(=O)c3ccc(N4C[C@@H](C)N(C)[C@@H](C)C4)cc3C)ccc2Cl)[nH]1 [Example 187, N-(3-(5-ethyl-1H-imidazol-2-yl)-4-chlorophenyl)-2-methyl-4-((3S,5R)-3,4,5-trimethylpiperazin-1-yl)benzamide Dihydrochloride]"
13,1 nM,"CCc1cnc(-c2cc(NC(=O)c3ccc(N4C[C@@H](C)N(C)[C@@H](C)C4)cc3Cl)ccc2Cl)[nH]1 [Example 188, N-(3-(5-ethyl-1H-imidazol-2-yl)-4-chlorophenyl)-2-chloro-4-((3S,5R)-3,4,5-trimethylpiperazin-1-yl)benzamide Dihydrochloride]"
14,0.2 nM,"Cc1c(C(=O)Nc2ccc(Cl)c(-c3ncc(C(C)C)[nH]3)c2)ccc(N2C[C@@H](C)N(C)[C@@H](C)C2)c1F [Example 190, N-(3-(5-isopropyl-1H-imidazol-2-yl)-4-chlorophenyl)-2-methyl-3-fluoro-4-((3S,5R)-3,4,5-trimethylpiperazin-1-yl)benzamide Dihydrochloride]"
15,0.34 nM,"CC(C)c1cnc(-c2cc(NC(=O)c3cc(F)c(N4C[C@@H](C)N(C)[C@@H](C)C4)cc3Cl)ccc2Cl)[nH]1 [Example 191, N-(3-(5-isopropyl-1H-imidazol-2-yl)-4-chlorophenyl)-2-chloro-5-fluoro-4-((3S,5R)-3,4,5-trimethylpiperazin-1-yl)benzamide Dihydrochloride]"
16,0.52 nM,"CCN1[C@H](C)CN(c2ccc(C(=O)Nc3ccc(Cl)c(-c4ncc(C(C)C)[nH]4)c3)c(Cl)c2)C[C@@H]1C [Example 192, N-(3-(5-isopropyl-1H-imidazol-2-yl)-4-chlorophenyl)-2-chloro-4-((3S,5R)-4-ethyl-3,5-dimethylpiperazin-1-yl)benzamide Dihydrochloride]"
17,0.56 nM,"C[C@@H]1CN(c2cc(Cl)c(C(=O)Nc3ccc(Cl)c(-c4ncc(C5CC5)[nH]4)c3)cc2F)C[C@H](C)N1C [Example 193, N-(3-(5-cyclopropyl-1H-imidazol-2-yl)-4-chlorophenyl)-2-chloro-5-fluoro-4-((3S,5R)-3,4,5-trimethylpiperazin-1-yl)benzamide Dihydrochloride]"
18,0.63 nM,"CCN1[C@H](C)CN(c2ccc(C(=O)Nc3ccc(Cl)c(-c4ncc(C5CC5)[nH]4)c3)c(Cl)c2)C[C@@H]1C [Example 194, N-(3-(5-cyclopropyl-1H-imidazol-2-yl)-4-chlorophenyl)-2-chloro-4-((3S,5R)-4-ethyl-3,5-dimethylpiperazin-1-yl)benzamide Dihydrochloride]"
19,0.29 nM,"CCN1[C@H](C)CN(c2ccc(C(=O)Nc3ccc(Cl)c(-c4nc5cscc5[nH]4)c3)c(Cl)c2)C[C@@H]1C [Example 203, N-(3-(1H-thieno[3,4-d]imidazol-2-yl)-4-chlorophenyl)-2-chloro-4-((3S,5R)-4-ethyl-3,5-dimethylpiperazin-1-yl)benzamide]"

# Tested on: Hedgehog Signaling Pathway
# Test: SHH-induced differentiation of C3H10T1/2 cells into osteoblastic cells, intracellular alkaline phosphatase activity
# Type: cell-based, mouse
# Details: 10 nM SHH-N, 5 days, alkaline phosphatase activity (OD405), Dihydrochloride, read-out: IC50 values of compounds that inhibit Hh pathway
# Method in brief: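 Hedgehog pathway inhibition was taken as loss of SHH-driven osteoblastic differentiation. Test compound (10 nM–10 μM) plus SHH-N (10 nM) was applied to C3H10T1/2 cells for 5 days, then lysate phosphatase turnover was measured as the 30-min OD405 change at 37 °C. IC50 was fitted from activity versus log dose.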
row,IC50,SMILES
1,7.2 nM,"C[C@@H]1CN(c2ccc(C(=O)Nc3ccc(Cl)c(-c4nc5ccc(F)cc5[nH]4)c3)c(Cl)c2)C[C@H](C)N1C [Example 131, N-(3-(6-fluoro-1H-benzo[d]imidazol-2-yl)-4-chlorophenyl)-2-chloro-4-((3S,5R)-3,4,5-trimethylpiperazin-1-yl)benzamide Dihydrochloride]"

# Source: US10676468B2, “N-(3-heteroarylaryl)-4-arylarylcarboxamides and analogs as hedgehog pathway inhibitors and use thereof” (IMPACT Therapeutics, Inc., priority 2012, dated 2020)
